From patent US20260335495A1, “SYNERGISTIC ACTIVITY OF NOVEL COMPOUNDS AGAINST PLANKTONIC AND BIOFILM CELLS OF CLINICALLY RELEVANT PATHOGENS” (priority 2021, published 2026)

Key:
C. albicans ON47 [1] = assay: MIC and checkerboard (FICI), planktonic cells; type: cell-based; settings: for MIC: alone, 24 h, 37 °C
Procedure: (§1) The MIC was determined by the micro broth dilution method in 96-well plates. […] A 10 μL containing 1×10^5 bacterial cells or 2×10^3 fungal cells were added to each well. The inoculated plates were covered with a lid, sealed with Parafilm, and incubated for 24 h at 37 °C with slight rocking on a tilting platform shaker. After incubation, the optical density at 600 nm (OD 600) of the cultures in each well was measured using an xMark™ Microplate Absorbance Spectrophotometer (Bio-Rad). The MIC was defined as the lowest concentration of antimicrobial compound at which the culture OD600 values was similar to uninoculated control wells. MBCs and MFCs were determined by transferring 100 μL from each well with no apparent growth onto appropriate agar plates, followed by incubation for 24 h at 37 °C.
(§2) The concentrations of antimicrobials used were based on previously determined MIC values. […] Microtiter plates were incubated at 37 °C for 24 h, and the results were analyzed. Each test was performed in duplicate and included a growth control without the addition of any antimicrobials.

[2] = test system: Staphylococcus aureus ON89; assay: MIC and checkerboard (FICI), planktonic cells; type: cell-based; settings: for MIC: alone, 24 h, 37 °C
Procedure: as §1, §2

E. coli SK2 = assay: MBC/MFC and FMCI, planktonic cells; type: cell-based; settings: for MBC/MFC: alone
Procedure: as §1, §2

Escherichia coli ON29 = assay: MBC/MFC and FMCI, planktonic cells; type: cell-based; settings: for MBC/MFC: alone
Procedure: as §1, §2

Proteus mirabilis ON153 = assay: MBC/MFC and FMCI, planktonic cells; type: cell-based; settings: for MBC/MFC: alone
Procedure: as §1, §2

S. epidermidis SK9 = assay: MBC/MFC and FMCI, planktonic cells; type: cell-based; settings: for MBC/MFC: alone
Procedure: as §1, §2

Serratia marcescens SK2 = assay: MBC/MFC and FMCI, planktonic cells; type: cell-based; settings: for MBC/MFC: alone
Procedure: as §1, §2

[3] = test system: Staphylococcus aureus ON89; assay: MBC/MFC and FMCI, planktonic cells; type: cell-based; settings: for MBC/MFC: alone
Procedure: as §1, §2

[4] = test system: Staphylococcus epidermidis ON170; assay: MBC/MFC and FMCI, planktonic cells; type: cell-based; settings: for MBC/MFC: alone
Procedure: as §1, §2

C. albicans ON47 [5] = assay: MBC/MFC and FMCI, planktonic cells; type: cell-based; settings: for MBC/MFC: alone
Procedure: as §1, with “The MIC was defined as the lowest concentration of antimicrobial compound at which the culture OD600 values was similar to uninoculated control wells.” left out
as §2

Candida albicans SK4b = assay: MBC/MFC and FMCI, planktonic cells; type: cell-based; settings: for MBC/MFC: alone
Procedure: as §1, with “The MIC was defined as the lowest concentration of antimicrobial compound at which the culture OD600 values was similar to uninoculated control wells.” left out
as §2

[6] = test system: Pseudomonas aeruginosa SK1; assay: MBC/MFC and FMCI, planktonic cells; type: cell-based; settings: for MBC/MFC: alone
Procedure: as §1, with “The MIC was defined as the lowest concentration of antimicrobial compound at which the culture OD600 values was similar to uninoculated control wells.” left out
as §2

[7] = test system: Stenotrophomonas maltophilia ON17; assay: MBC/MFC and FMCI, planktonic cells; type: cell-based; settings: for MBC/MFC: alone
Procedure: as §1, with “The MIC was defined as the lowest concentration of antimicrobial compound at which the culture OD600 values was similar to uninoculated control wells.” left out
as §2

12 test organisms = assay: MBC/MFC and FMCI, planktonic cells, summary over strains; type: cell-based, bacterial and fungal organisms
Procedure: as §1, §2

[8] = test system: preformed biofilms of test pathogens; assay: MBEC and FBEC index, 48 h old biofilms, summary over strains; type: cell-based, bacterial and fungal strains; settings: alone: 4% tetrasodium EDTA, 50% ethanol, 100 μg/mL chlorhexidine HCl, 24 hours
Procedure: The evaluation of the biofilm cultivation cell composition was evaluated using an MBEC Assay® biofilm inoculator, consisting of a polystyrene lid with 96 downward-protruding pegs and a corresponding base used to grow biofilms. A standardized inoculum was diluted in an appropriate biofilm growth medium to achieve a viable cell count of 1.5×10^6 CFU/mL of bacterial cells or 5×10^5 CFU/mL of fungal cells. Then, 150 μL of this inoculum was transferred into each appropriate well, and the peg lids were inserted into the microtiter plates. The plates were sealed with Parafilm and were incubated at optimum temperature for 48 h with slight rocking for bacteria and shaking at 200 rpm for fungal strains. After incubation, the peg lid was removed from the base and rinsed twice with sterile phosphate-buffered saline (PBS) for 2 min to remove loosely attached non-sessile cells. Before the antimicrobial challenge, the pegs in column 1 (n=8) were considered as the biofilm growth control; these pegs were removed from the lids, placed into 200 μL of recovery medium, and analyzed for starting biofilm cell numbers as described below. […] After the antimicrobial challenge, the pegs were rinsed twice with sterile PBS for 2 min and placed into a new 96-well plate containing 200 μL of recovery medium. The recovery plates were sealed with Parafilm, and biofilm cells were dislodged from the pegs by sonication for 30 min with a Branson 3510 bath sonicator. The biofilm cells in the recovery medium were serially diluted, and a drop dilution assay was performed to enumerate the viable cells.
In step (4), microtiter plates are incubated at 37 °C for 24 h. then (6), after incubation, the bacterial and fungal cells were dislodged from the pegs into the recovery medium described above.
Three 10-μL aliquots, for a total of 30 μL from each well of recovery medium, were spotted on MH agar plates and incubated for 24 hours at 37 °C. […] The FBEC determination is a modification of the FICI. […]

[9] = test system: bacterial and fungal biofilms; assay: Rapid eradication of 48-h-old biofilms within 2 h exposure; type: cell-based, bacterial and fungal strains; settings: at the MBEC alone, 48-h-old biofilm
Procedure: This example comprises performing biofilm growth as described above. After biofilm formation, control pegs (n=6) were removed and analyzed to determine the starting biofilm cell numbers via the drop dilution method. The 48-h old biofilms on the pegs were exposed to different concentrations of test antimicrobials, dissolved in an appropriate growth medium, for 2 hours to evaluate their efficacy alone and in combination. […] Following treatment, pegs were washed twice with sterile PBS, and the biofilm cells were dislodged into recovery medium and enumerated as described above.

Compound `CCO` [ET, ethanol] has an MIC in combination (C. albicans ON47 [1]; TE + ET in combination) of 0.4%, an MIC (C. albicans ON47 [1]) of 6.25% and an MIC in combination ([2]; TE + ET in combination) of 0.4%. It also gave an MIC [2] of 6.25%, an MBC/MFC in combination (E. coli SK2; TE + ET in combination) of 6.25% and an MBC/MFC (E. coli SK2) of 25%. For the same compound, the MBC/MFC in combination (Escherichia coli ON29; TE + ET in combination) was 6.25%, the MBC/MFC (Escherichia coli ON29) was 25% and the MBC/MFC in combination (Proteus mirabilis ON153; TE + ET in combination) was 6.25%. It also gave an MBC/MFC (Proteus mirabilis ON153) of 12.5%, an MBC/MFC in combination (S. epidermidis SK9; TE + ET in combination) of 3.125% and an MBC/MFC (S. epidermidis SK9) of 12.5%. For the same compound, the MBC/MFC in combination (Serratia marcescens SK2; TE + ET in combination) was 6.25%, the MBC/MFC (Serratia marcescens SK2) was 12.5% and the MBC/MFC in combination ([3]; TE + ET in combination) was 3.125%. It also gave an MBC/MFC [3] of 25%, an MBC/MFC in combination ([4]; TE + ET in combination) of 1.6% and an MBC/MFC [4] of 6.25%. The MBC/MFC in combination (C. albicans ON47 [5]; TE + ET in combination) was 3.125%, the MBC/MFC (C. albicans ON47 [5]) was 6.25% and the MBC/MFC in combination (Candida albicans SK4b; TE + ET in combination) was 3.125%. It also gave an MBC/MFC (Candida albicans SK4b) of 6.25%, an MBC/MFC in combination ([6]; TE + ET in combination) of 6.25% and an MBC/MFC [6] of 12.5%. For the same compound, the MBC/MFC in combination ([7]; TE + ET in combination) was 1.6%, the MBC/MFC [7] was 6.25% and the microbicidal activity (12 test organisms) was “broad-spectrum microbicidal activity”. For the same compound, the “eradication of all established biofilms” value [8] was “able to eradicate all established biofilms” and the biofilm eradication [9] was “failed to eradicate the preformed biofilms”.
Work on `O=C(O)CN(CCN(CC(=O)O)CC(=O)O)CC(=O)O.[Na].[Na].[Na].[Na]` [TE, tetrasodium ethylenediaminetetraacetic acid] yielded an MIC in combination (C. albicans ON47 [1]; TE + CH in combination) of 0.125%, an MIC in combination (C. albicans ON47 [1]; TE + ET in combination) of 0.25% and an MIC (C. albicans ON47 [1]) of 1%. It also gave an MIC in combination ([2]; TE + CH in combination) of 0.008%, an MIC in combination ([2]; TE + ET in combination) of 0.015% and an MIC [2] of 0.063%. The MBC/MFC in combination (E. coli SK2; TE + CH in combination) was 0.015%, the MBC/MFC in combination (E. coli SK2; TE + ET in combination) was 0.25% and the MBC/MFC (E. coli SK2) was 0.5%. It also gave an MBC/MFC in combination (Escherichia coli ON29; TE + CH in combination) of 0.008%, an MBC/MFC in combination (Escherichia coli ON29; TE + ET in combination) of 0.25% and an MBC/MFC (Escherichia coli ON29) of 1%. For the same compound, the MBC/MFC in combination (Proteus mirabilis ON153; TE + CH in combination) was 0.125%, the MBC/MFC in combination (Proteus mirabilis ON153; TE + ET in combination) was 0.063% and the MBC/MFC (Proteus mirabilis ON153) was 2%. The MBC/MFC in combination (S. epidermidis SK9; TE + CH in combination) was 0.008%, the MBC/MFC in combination (S. epidermidis SK9; TE + ET in combination) was 0.031% and the MBC/MFC (S. epidermidis SK9) was 0.5%. It also gave an MBC/MFC in combination (Serratia marcescens SK2; TE + CH in combination) of 0.125%, an MBC/MFC in combination (Serratia marcescens SK2; TE + ET in combination) of 0.25% and an MBC/MFC (Serratia marcescens SK2) of 2%. The MBC/MFC in combination ([3]; TE + CH in combination) was 0.008%, the MBC/MFC in combination ([3]; TE + ET in combination) was 0.25% and the MBC/MFC [3] was 1%. The MBC/MFC in combination ([4]; TE + CH in combination) was 0.25%, the MBC/MFC in combination ([4]; TE + ET in combination) was 0.031% and the MBC/MFC [4] was 0.5%. The MBC/MFC in combination (C. albicans ON47 [5]; TE + CH in combination) was 0.031%, the MBC/MFC in combination (C. albicans ON47 [5]; TE + ET in combination) was 0.25% and the MBC/MFC (C. albicans ON47 [5]) was 2%. For the same compound, the MBC/MFC in combination (Candida albicans SK4b; TE + CH in combination) was 0.125%, the MBC/MFC in combination (Candida albicans SK4b; TE + ET in combination) was 0.25% and the MBC/MFC (Candida albicans SK4b) was 1%. It also gave an MBC/MFC in combination ([6]; TE + CH in combination) of 0.031%, an MBC/MFC in combination ([6]; TE + ET in combination) of 0.031% and an MBC/MFC [6] of 1%. It also gave an MBC/MFC in combination ([7]; TE + CH in combination) of 0.031%, an MBC/MFC in combination ([7]; TE + ET in combination) of 0.125% and an MBC/MFC [7] of 1%. The microbicidal activity (12 test organisms) was “broad-spectrum microbicidal activity”, the “eradication of all established biofilms” value [8] was “able to eradicate all established biofilms” and the biofilm eradication [9] was “failed to eradicate the preformed biofilms”.
